# In the supplement of paper PMC10307832:
# Experiments:
# Test in all cases: relative viability (nuclei count vs DMSO), 5 days (fraction); higher = more cells survive
# Carboplatin + Luminespib = compound: C1CC(C1)(C(=O)O)C(=O)O.[NH2-].[NH2-].[Pt+2] [Carboplatin] + CCNC(=O)c1noc(-c2cc(C(C)C)c(O)cc2O)c1-c1ccc(CN2CCOCC2)cc1 [Luminespib] (partner 0.01 µM)
# In short: (§1)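 Relative viability was taken as the ratio of nuclei in treated wells to nuclei in vehicle wells. Lung cancer cell lines in 1536-well plates received compounds by pin tool one day after seeding, either one drug alone or a fixed anchor-drug dose plus five library-drug doses (not always all listed) in √10 steps. Nuclei were counted on 4× images after 5 days of treatment, and values are medians of duplicate plates.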
# Carboplatin + Lapatinib = compound: C1CC(C1)(C(=O)O)C(=O)O.[NH2-].[NH2-].[Pt+2] [Carboplatin] + CS(=O)(=O)CCNCc1ccc(-c2ccc3ncnc(Nc4ccc(OCc5cccc(F)c5)c(Cl)c4)c3c2)o1 [Lapatinib] (partner 2 µM)
# In short: as §1
# GSK126 + Navitoclax = compound: CC[C@H](C)N1C=C(C2=C(C=C(C=C21)C3=CN=C(C=C3)N4CCNCC4)C(=O)NCC5=C(C=C(NC5=O)C)C)C [GSK126] + CC1(C)CCC(c2ccc(Cl)cc2)=C(CN2CCN(c3ccc(C(=O)NS(=O)(=O)c4ccc(N[C@H](CCN5CCOCC5)CSc5ccccc5)c(S(=O)(=O)C(F)(F)F)c4)cc3)CC2)C1 [Navitoclax] (partner 0.5 µM)
# In short: as §1
# MLN4924 + OSI-027 = compound: NS(=O)(=O)OC[C@@H]1C[C@@H](n2ccc3c(N[C@H]4CCc5ccccc54)ncnc32)C[C@@H]1O [MLN4924] + COc1cccc2cc(-c3nc([C@H]4CC[C@H](C(=O)O)CC4)n4ncnc(N)c34)[nH]c12 [OSI-027] (partner 0.5 µM)
# In short: as §1
Cell Line,relative viability (Carboplatin + Luminespib; first compound 0.08 µM),relative viability (Carboplatin + Luminespib; first compound 0.253 µM),relative viability (Carboplatin + Luminespib; first compound 0.8 µM),relative viability (Carboplatin + Luminespib; first compound 2.53 µM),relative viability (Carboplatin + Luminespib; first compound 8 µM),relative viability (Carboplatin + Lapatinib; first compound 0.08 µM),relative viability (Carboplatin + Lapatinib; first compound 0.253 µM),relative viability (Carboplatin + Lapatinib; first compound 0.8 µM),relative viability (Carboplatin + Lapatinib; first compound 2.53 µM),relative viability (Carboplatin + Lapatinib; first compound 8 µM),relative viability (GSK126 + Navitoclax; first compound 0.08 µM),relative viability (GSK126 + Navitoclax; first compound 0.253 µM),relative viability (GSK126 + Navitoclax; first compound 0.8 µM),relative viability (GSK126 + Navitoclax; first compound 2.53 µM),relative viability (GSK126 + Navitoclax; first compound 8 µM),relative viability (MLN4924 + OSI-027; first compound 0.04 µM),relative viability (MLN4924 + OSI-027; first compound 0.1265 µM),relative viability (MLN4924 + OSI-027; first compound 0.4 µM),relative viability (MLN4924 + OSI-027; first compound 1.265 µM),relative viability (MLN4924 + OSI-027; first compound 4 µM)
NCI-H1993,1.13,0.812,0.818,0.884,0.698,0.834,0.843,0.909,0.791,0.853,0.981,0.931,0.754,1.06,0.892,0.549,0.523,0.532,0.488,0.52
NCI-H1944,0.881,0.661,0.661,0.452,0.389,0.783,0.978,0.833,0.919,0.586,1.28,1.02,1.01,0.996,1.2,0.502,0.453,0.313,0.161,0.185
SK-LU-1,0.22,0.21,0.192,0.21,0.198,0.99,1.01,0.766,0.797,0.735,0.857,0.819,0.911,0.915,0.855,0.366,0.331,0.177,0.128,0.139
NCI-H1915,0.867,0.876,0.631,0.613,0.328,0.906,1.03,0.976,0.999,0.577,0.83,0.789,0.786,0.789,0.786,0.567,0.544,0.452,0.213,0.205
NCI-H650,0.757,0.904,0.655,0.548,0.327,1.06,0.852,0.876,0.976,0.521,,,,,,0.344,0.415,0.235,0.162,0.187
SW 1573,0.298,0.293,0.344,0.579,0.222,1.05,1.1,1.17,1.3,0.961,0.894,0.955,1.2,1.06,1.07,0.684,0.666,0.191,0.0527,0.0802
NCI-H1563,0.526,0.506,0.499,0.482,0.565,0.998,1.07,1.11,0.925,0.979,,,,,,0.981,1.04,0.74,0.526,0.524
NCI-H1703,,,,,,1.13,0.966,1.13,0.92,1.28,1.49,0.942,1.02,0.898,0.748,,,,,
NCI-H1648,,,,,,,,,,,,,,,,0.246,0.235,0.21,0.205,0.228
ABC-1,1.17,0.704,0.451,0.435,0.273,1.12,1.55,0.848,0.902,1.17,,,,,,0.7,0.511,0.323,0.196,0.248
